One may read the % Inhibition as the drop in the measured response relative to a control, in per cent. Read a high % Inhibition as strong suppression.

Strand notation (5' to 3'): a small letter for the sugar, then the base; units joined by * are phosphorothioate-linked, units joined directly phosphodiester-linked; [ ] holds rarer units or linkages, { } end groups; capitals alone tell only the bases. e = 2'-O-(2-methoxyethyl) (MOE); [5mC] = 5-methylcytosine; d = 2'-deoxy (DNA)

The data set deals with human Factor 7 mRNA. The data set can be described thus: Antisense inhibition of human Factor 7 mRNA in HepB3 cells, 50 nM antisense oligonucleotide, lipofectin. Format: cell-based. The settings on record: lipofectin, 50 nM antisense oligonucleotide, approximately 24 hours, Factor 7 mRNA by real-time RT-PCR (RTS 2927), relative to untreated control. The method in brief: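 Cells plated at 4,000 per well were transfected and harvested after approximately 24 hours of treatment. Transcript levels, measured with primer probe set RTS 2927, were normalised to total RNA by RIBOGREEN®. Values are percent inhibition relative to untreated control cells.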
For “416434 (antisense e[5mC]*eT*eG*eT*eA*dA*dG*dA*dA*dA*dT*d[5mC]*d[5mC]*dA*dG*eA*eA*e[5mC]*eA*eG) [compound 416434]”, the “% Inhibition” value stood at 0%.

“416435 (antisense e[5mC]*e[5mC]*e[5mC]*eA*eT*d[5mC]*dA*d[5mC]*dT*dG*dT*dA*dA*dG*dA*eA*eA*eT*e[5mC]*e[5mC]) [compound 416435]”: the “% Inhibition” value was found to be 3%.

“416436 (antisense eA*e[5mC]*eT*eG*eG*dT*d[5mC]*d[5mC]*d[5mC]*d[5mC]*dA*dT*d[5mC]*dA*d[5mC]*eT*eG*eT*eA*eA) [compound 416436]”: the “% Inhibition” value was 27%.

Consider “416437 (antisense eA*eG*eG*e[5mC]*eA*d[5mC]*dA*d[5mC]*dT*dG*dG*dT*d[5mC]*d[5mC]*d[5mC]*e[5mC]*eA*eT*e[5mC]*eA) [compound 416437]”, for which the “% Inhibition” value is 52%.

Take “416439 (antisense eG*eT*e[5mC]*e[5mC]*eT*dT*dG*d[5mC]*dA*dG*dG*dA*dG*d[5mC]*d[5mC]*e[5mC]*e[5mC]*e[5mC]*eA*eT) [compound 416439]”: the “% Inhibition” value is listed as 56%.

As for “416440 (antisense eG*eG*eA*e[5mC]*eT*dG*dG*dA*dG*d[5mC]*dT*dG*dG*dT*d[5mC]*e[5mC]*eT*eT*eG*e[5mC]) [compound 416440]”, the “% Inhibition” value was determined as 44%.

Turning to “416441 (antisense eA*eG*eA*eT*eA*dT*dA*dG*dG*dA*d[5mC]*dT*dG*dG*dA*eG*e[5mC]*eT*eG*eG) [compound 416441]”, the “% Inhibition” value came out at 32%.

With “416442 (antisense eA*eG*e[5mC]*eA*eG*dA*dT*dA*dT*dA*dG*dG*dA*d[5mC]*dT*eG*eG*eA*eG*e[5mC]) [compound 416442]”, the “% Inhibition” value turned out to be 57%.

“416443 (antisense eG*eA*eG*eG*e[5mC]*dA*dG*dA*dA*dG*d[5mC]*dA*dG*dA*dT*eA*eT*eA*eG*eG) [compound 416443]”: the “% Inhibition” value came to 17%.

Consider “416444 (antisense eA*e[5mC]*eA*eG*eT*dT*d[5mC]*d[5mC]*dG*dG*d[5mC]*d[5mC]*d[5mC]*dT*d[5mC]*eG*eA*eA*eG*eG) [compound 416444]”, for which the “% Inhibition” value came to 24%.

As to “416445 (antisense eT*eA*e[5mC]*eT*eG*d[5mC]*dT*d[5mC]*dA*d[5mC]*dA*dG*d[5mC]*d[5mC]*dG*e[5mC]*e[5mC]*eG*eT*eT) [compound 416445]”, the “% Inhibition” value came to 57%.

Take “416447 (antisense e[5mC]*eA*eT*eG*eG*dA*dT*dA*dT*dT*d[5mC]*dA*dA*d[5mC]*dT*eG*eT*eG*eG*eG) [compound 416447]”: the “% Inhibition” value amounted to 17%.

As to “416448 (antisense eT*eT*eT*eT*eT*d[5mC]*d[5mC]*dA*d[5mC]*dA*dT*dG*dG*dA*dT*eA*eT*eT*e[5mC]*eA) [compound 416448]”, the “% Inhibition” value worked out at 34%.

“416450 (antisense eG*eG*eT*eT*eT*dG*d[5mC]*dT*dG*dG*d[5mC]*dA*dT*dT*dT*e[5mC]*eT*eT*eT*eT) [compound 416450]”: the “% Inhibition” value is 49%.

As for “416451 (antisense eG*e[5mC]*e[5mC]*eA*eT*dG*dG*dA*d[5mC]*dA*d[5mC]*dT*d[5mC]*d[5mC]*d[5mC]*e[5mC]*eT*eT*eT*eG) [compound 416451]”, the “% Inhibition” value came out at 75%.

As to “416452 (antisense e[5mC]*e[5mC]*eA*eA*e[5mC]*dA*dA*d[5mC]*dA*dG*dG*dA*d[5mC]*d[5mC]*dT*eG*e[5mC]*e[5mC]*eA*eT) [compound 416452]”, the “% Inhibition” value amounted to 19%.

Turning to “416453 (antisense eG*eA*eT*eT*eT*dT*dG*dT*d[5mC]*dG*dA*dA*dA*d[5mC]*dA*eG*eT*eG*eG*eG) [compound 416453]”, the “% Inhibition” value came to 45%.

As to “416454 (antisense e[5mC]*eG*eT*eG*e[5mC]*dT*d[5mC]*dG*d[5mC]*d[5mC]*d[5mC]*dA*dG*d[5mC]*dA*e[5mC]*e[5mC]*eG*e[5mC]*eG) [compound 416454]”, the “% Inhibition” value is 56%.

The record behind these values is US9029337B2, “Modulation of factor 7 expression” (Isis Pharmaceuticals, Inc., priority 2007, dated 2015).
